Test [1] addresses wild-type human cardiac sodium channel, hNaV 1.5 (Peak INa) (Homo sapiens, UniProt Q14524). Nature of the test: Peak INa screening assay (tonic block and use-dependent block). Format: cell-based. The gist of the method: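 HEK293 cells stably expressing hNaV1.5 alpha subunit without beta subunits, whole-cell automated patch clamp. Compound at 1 or 3 μM added twice 60 s apart, then 200 s equilibration before tonic and use-dependent block voltage protocols. Block calculated versus compound-free condition with rundown correction; intracellular solution CsF/CsCl-based, pH 7.35.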

A further test has as its target hNaV1.1 (SCN1A) (Homo sapiens, UniProt P35498). Nature of the test: Use-dependent inhibition of the CNS NaV1.1 sodium channel. In kind it is cell-based. The conditions noted are these: % inhibition, 25 Hz; for inhibition at 1 µM: use-dependent block at 1 uM, read-out: Nav1.1 UDB 25 Hz 1 uM; for inhibition at 10 µM: use-dependent block at 10 uM, read-out: Nav1.1 UDB 25 Hz 10 uM. The gist of the method:
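Whole-cell automated patch clamp on HEK-293 cells stably expressing hNaV1.1, 23-25° C., CsF internal solution. Peak current at pulse 20 of a 25 Hz train (0 mV, 20 ms) from −120 mV, normalized to pulse 1; percentage inhibition versus compound-free condition.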

The mark [2] stands for this setting: % inhibition, use-dependent block of peak INa at 3 uM, 3 Hz, pulse 50, read-out: Nav1.5 Peak UDB 3 Hz 3 uM.
The mark [3] stands for this setting: read-out: Nav1.5 Peak TB 3 uM, % inhibition, tonic block of peak INa at 3 uM, 0.1 Hz, holding -100 mV.

Where two headings read alike, the source gives them in different places.

Chain of wild-type human cardiac sodium channel, hNaV 1.5 (Peak INa) (Q14524 whole entry): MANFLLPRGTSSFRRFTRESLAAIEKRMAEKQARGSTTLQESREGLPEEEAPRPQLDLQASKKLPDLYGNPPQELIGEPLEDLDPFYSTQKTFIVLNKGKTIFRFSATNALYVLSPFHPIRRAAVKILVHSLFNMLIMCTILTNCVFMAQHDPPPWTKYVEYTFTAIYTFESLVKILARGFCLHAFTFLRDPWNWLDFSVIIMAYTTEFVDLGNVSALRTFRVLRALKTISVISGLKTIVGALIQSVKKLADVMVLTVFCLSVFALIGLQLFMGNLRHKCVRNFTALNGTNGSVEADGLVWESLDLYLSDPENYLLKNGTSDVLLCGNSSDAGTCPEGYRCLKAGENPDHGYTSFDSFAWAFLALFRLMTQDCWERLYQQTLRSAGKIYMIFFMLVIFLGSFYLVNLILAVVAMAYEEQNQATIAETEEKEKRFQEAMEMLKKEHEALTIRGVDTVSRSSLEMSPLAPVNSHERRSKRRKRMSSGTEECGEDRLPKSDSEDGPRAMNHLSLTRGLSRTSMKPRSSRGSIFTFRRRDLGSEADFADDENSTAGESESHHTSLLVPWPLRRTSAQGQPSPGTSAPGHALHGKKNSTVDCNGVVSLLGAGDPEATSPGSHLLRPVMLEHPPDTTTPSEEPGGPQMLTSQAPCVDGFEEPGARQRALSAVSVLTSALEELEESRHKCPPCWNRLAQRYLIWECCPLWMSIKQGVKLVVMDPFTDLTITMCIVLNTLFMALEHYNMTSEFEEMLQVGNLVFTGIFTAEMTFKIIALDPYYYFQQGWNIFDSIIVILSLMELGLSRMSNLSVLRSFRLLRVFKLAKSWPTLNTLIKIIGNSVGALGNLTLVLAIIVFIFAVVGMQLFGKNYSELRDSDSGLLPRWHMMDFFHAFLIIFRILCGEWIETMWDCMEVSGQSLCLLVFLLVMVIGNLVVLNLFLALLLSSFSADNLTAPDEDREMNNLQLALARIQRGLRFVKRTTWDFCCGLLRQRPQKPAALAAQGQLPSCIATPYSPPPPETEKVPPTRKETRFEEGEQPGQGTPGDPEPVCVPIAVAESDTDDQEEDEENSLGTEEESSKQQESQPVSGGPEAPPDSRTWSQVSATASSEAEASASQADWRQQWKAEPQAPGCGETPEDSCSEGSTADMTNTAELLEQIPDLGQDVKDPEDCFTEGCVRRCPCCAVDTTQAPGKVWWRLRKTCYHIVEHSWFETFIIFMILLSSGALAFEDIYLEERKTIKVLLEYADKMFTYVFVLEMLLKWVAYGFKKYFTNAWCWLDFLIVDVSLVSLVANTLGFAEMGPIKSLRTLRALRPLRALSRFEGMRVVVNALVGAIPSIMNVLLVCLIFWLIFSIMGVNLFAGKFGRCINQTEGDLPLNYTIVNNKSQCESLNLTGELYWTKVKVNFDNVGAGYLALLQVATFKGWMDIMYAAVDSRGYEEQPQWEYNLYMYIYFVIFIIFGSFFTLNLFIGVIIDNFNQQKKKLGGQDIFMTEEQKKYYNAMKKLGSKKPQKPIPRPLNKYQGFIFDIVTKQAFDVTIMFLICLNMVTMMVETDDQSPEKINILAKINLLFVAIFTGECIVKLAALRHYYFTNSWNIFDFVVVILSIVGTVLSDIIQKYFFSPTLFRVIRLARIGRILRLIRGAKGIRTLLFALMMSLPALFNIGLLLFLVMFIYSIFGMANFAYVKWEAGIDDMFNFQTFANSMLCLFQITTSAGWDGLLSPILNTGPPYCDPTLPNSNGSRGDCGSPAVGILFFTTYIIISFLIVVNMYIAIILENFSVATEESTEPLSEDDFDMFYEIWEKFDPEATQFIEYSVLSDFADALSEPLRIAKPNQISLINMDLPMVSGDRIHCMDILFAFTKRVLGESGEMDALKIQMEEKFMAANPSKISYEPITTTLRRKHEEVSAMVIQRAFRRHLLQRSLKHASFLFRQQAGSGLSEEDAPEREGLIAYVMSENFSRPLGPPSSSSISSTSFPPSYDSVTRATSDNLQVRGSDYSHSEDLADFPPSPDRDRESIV

Turning to `Cc1cc(OC(F)(F)F)ccc1-c1ccc2c(c1)CN(Cc1ncccn1)C(=O)O2` [Example 8, 6-(2-methyl-4-(trifluoromethoxy)phenyl)-3-(pyrimidin-2-ylmethyl)-3,4-dihydro-2H-benzo[e][1,3]oxazin-2-one], the inhibition at 3 µM in test [1] (setting [2]) is less than 5%. Besides, the inhibition at 3 µM in test [1] (setting [3]) is 12.5%. Also, on hNaV1.1 (SCN1A), the inhibition at 1 µM was less than 5% and the inhibition at 10 µM was determined as 11.6%.

As to `CCOc1cc(C(F)(F)F)ccc1-c1ccc2c(c1)CN(Cc1ncccn1)C(=O)O2` [Example 35, 6-(2-ethoxy-4-(trifluoromethyl)phenyl)-3-(pyrimidin-2-ylmethyl)-3,4-dihydro-2H-benzo[e][1,3]oxazin-2-one], the figures for the inhibition at 3 µM in test [1] (setting [2]) and in test [1] (setting [3]) were 9.7% and 20.2%, respectively. Further, on hNaV1.1 (SCN1A), the inhibition at 1 µM was 37.6%. Besides, the inhibition at 10 µM on hNaV1.1 (SCN1A) worked out at 80.4%.

For `Cc1csc(CN2Cc3cc(-c4ccc(Cl)c(Cl)c4)ccc3OC2=O)n1` [Example 56, 6-(3,4-dichlorophenyl)-3-((4-methylthiazol-2-yl)methyl)-3,4-dihydro-2H-benzo[e][1,3]oxazin-2-one], in test [1] (setting [2]), the inhibition at 3 µM was less than 5%. At hNaV1.1 (SCN1A), the inhibition at 1 µM was less than 5% and the inhibition at 10 µM was 10.7%.

On to `CCOc1cc(OC(F)(F)F)ccc1-c1ccc2c(c1)CN(Cc1ncccn1)C(=O)O2` [Example 40, 6-(2-ethoxy-4-(trifluoromethoxy)phenyl)-3-(pyrimidin-2-ylmethyl)-3,4-dihydro-2H-benzo[e][1,3]oxazin-2-one], for which the inhibition at 3 µM in test [1] (setting [2]) turned out to be 10.2%. Also, in test [1] (setting [3]), the inhibition at 3 µM came to 22.4%. Moreover, on hNaV1.1 (SCN1A), the inhibition at 1 µM came to 22.6% and the inhibition at 10 µM was 71.3%.

For `COc1cc(C(F)(F)F)ccc1-c1ccc2c(c1)CN(Cc1cccc(C)n1)C(=O)O2` [Example 44, 6-(2-methoxy-4-(trifluoromethyl)phenyl)-3-((6-methylpyridin-2-yl)methyl)-3,4-dihydro-2H-benzo[e][1,3]oxazin-2-one], the inhibition at 3 µM in test [1] (setting [2]) was less than 5%. In test [1] (setting [3]), the inhibition at 3 µM was 21.6%. Further, on hNaV1.1 (SCN1A), the inhibition at 1 µM came to 25% and the inhibition at 10 µM came out at 84.5%.

Consider `CC(C)Oc1cc(OC(F)(F)F)ccc1-c1ccc2c(c1)CN(Cc1ncccn1)C(=O)O2` [Example 39, 6-(2-isopropoxy-4-(trifluoromethoxy)phenyl)-3-(pyrimidin-2-ylmethyl)-3,4-dihydro-2H-benzo[e][1,3]oxazin-2-one], for which the inhibition at 3 µM in test [1] (setting [2]) came to 5.9%. The inhibition at 3 µM in test [1] (setting [3]) stood at 17.5%. In addition, at hNaV1.1 (SCN1A), the inhibition at 1 µM came out at 39.1% and the inhibition at 10 µM was determined as 73.4%.

For the compound `CC1c2cc(-c3ccc(OC(F)(F)F)cc3)ccc2OC(=O)N1Cc1ncccn1` (stereo not shown) [Example 48, 4-methyl-3-(pyrimidin-2-ylmethyl)-6-(4-(trifluoromethoxy)phenyl)-3,4-dihydro-2H-benzo[e][1,3]oxazin-2-one], the inhibition at 3 µM in test [1] (setting [3]) was found to be 12.1%. Besides, on hNaV1.1 (SCN1A), the inhibition at 1 µM was found to be 32.5% and the inhibition at 10 µM came out at 73.3%.

In the case of `Cc1cnc(CN2Cc3cc(-c4ccc(C(F)(F)F)cc4)ccc3OC2=O)nc1` [Example 13, 3-((5-methylpyrimidin-2-yl)methyl)-6-(4-(trifluoromethyl)phenyl)-3,4-dihydro-2H-benzo[e][1,3]oxazin-2-one], the inhibition at 3 µM in test [1] (setting [2]) was 5.6%. Moreover, in test [1] (setting [3]), the inhibition at 3 µM stood at 29.4%. In addition, on hNaV1.1 (SCN1A), the inhibition at 1 µM is 37.5% and the inhibition at 10 µM amounted to 88.8%.

Turning to `O=C1Oc2ccc(-c3ccc(C(F)(F)F)cc3)cc2CN1Cc1ccccn1` [Example 24, 3-(pyridin-2-ylmethyl)-6-(4-(trifluoromethyl)phenyl)-3,4-dihydro-2H-benzo[e][1,3]oxazin-2-one], the inhibition at 3 µM in test [1] (setting [2]) came out at 5.9%; in test [1] (setting [3]), 28.5%. Further, on hNaV1.1 (SCN1A), the inhibition at 1 µM came out at 44.9%. Besides, at hNaV1.1 (SCN1A), the inhibition at 10 µM turned out to be 79.6%.

The values above are taken from patent US9416128B2, “Fused heterocyclic compounds as ion channel modulators” (Gilead Sciences, Inc., priority 2013, dated 2016).
